For orientation: Kd means the free concentration of one partner at which half of the binding sites on the other are occupied at equilibrium, for simple one-to-one binding.

The results in this text go back to US20240158446A1, “CYCLIC COMPOUND HAVING SELECTIVE INHIBITORY ACTION ON KRAS OVER HRAS AND NRAS” (CHUGAI SEIYAKU KABUSHIKI KAISHA, priority 2021, published 2024).

Molecules are shown by their SMILES. Where a SMILES comes first, the peptide text is derived from it. Bridges are numbered along the chain shown (N, C = ends). [ ]: non-standard residue; d: D form. The star is where a group is joined. hPhe(3-Cl-4-CF3) = N[C@@H](CCc1ccc(C(F)(F)F)c(Cl)c1)C(=O)O; NPrPhe(4-CF3) = CCCN[C@@H](Cc1ccc(C(F)(F)F)cc1)C(=O)O; NMeGly(cPent) = CN[C@H](C(=O)O)C1CCCC1; NMeD = CN[C@@H](CC(=O)O)C(=O)O; NMeL = CN[C@@H](CC(C)C)C(=O)O; Morpholide = C1CN(*)CCO1; Ac5c = NC1(C(=O)O)CCCC1; NEtG = CCNCC(=O)O; Sar = CNCC(=O)O

In assay [1] the target is GDP-bound KRAS wild-type protein (Homo sapiens, UniProt P01116). The experiment in a line: Binding to KRAS by surface plasmon resonance (SPR), Single Cycle Kinetics. Particulars: SPR, Single Cycle Kinetics, GDP-bound KRAS wild-type protein; read-out: KRAS KD. For orientation: SPR reads the build-up and loss of mass on a sensor chip optically.
For assay [2], the target named is GDP-bound HRAS wild-type protein (Homo sapiens, UniProt P01112). The experiment in a line: Binding to HRAS by surface plasmon resonance (SPR), Single Cycle Kinetics. The settings on record: ratio of KD for GDP-bound HRAS wild-type protein to KD for KRAS, SPR.
The subject of assay [3] is human lung cancer strain NCI-H441. The experiment in a line: cells. The settings on record: NCI-H441, 96 h, read-out: NCI-H441 IC50 (nM), NCI-H441 cell proliferation, 4 days, CellTiter-Glo. (In general: In ATP-based viability assays light output follows the ATP content of the culture.)
The target in assay [4] is GDP-bound NRAS wild-type protein (Homo sapiens, UniProt P01111). The experiment in a line: Binding to NRAS by surface plasmon resonance (SPR), Single Cycle Kinetics. The settings on record: ratio of KD for GDP-bound NRAS wild-type protein to KD for KRAS, SPR.
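For IC50 in this document: cell proliferation inhibition after four days measured by CellTiter-Glo.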

Chain of GDP-bound HRAS wild-type protein (P01112 whole entry): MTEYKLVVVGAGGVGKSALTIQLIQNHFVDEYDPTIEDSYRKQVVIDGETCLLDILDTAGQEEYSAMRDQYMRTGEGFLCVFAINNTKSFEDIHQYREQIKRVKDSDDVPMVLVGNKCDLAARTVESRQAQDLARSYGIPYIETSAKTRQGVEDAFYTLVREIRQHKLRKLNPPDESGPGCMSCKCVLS
Chain of GDP-bound NRAS wild-type protein (P01111 whole entry): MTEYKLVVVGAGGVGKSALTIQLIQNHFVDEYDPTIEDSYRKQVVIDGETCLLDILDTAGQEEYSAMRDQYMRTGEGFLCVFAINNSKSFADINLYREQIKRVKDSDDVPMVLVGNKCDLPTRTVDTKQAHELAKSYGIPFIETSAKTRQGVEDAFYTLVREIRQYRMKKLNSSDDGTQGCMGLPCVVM
Chain of GDP-bound KRAS wild-type protein (P01116 whole entry): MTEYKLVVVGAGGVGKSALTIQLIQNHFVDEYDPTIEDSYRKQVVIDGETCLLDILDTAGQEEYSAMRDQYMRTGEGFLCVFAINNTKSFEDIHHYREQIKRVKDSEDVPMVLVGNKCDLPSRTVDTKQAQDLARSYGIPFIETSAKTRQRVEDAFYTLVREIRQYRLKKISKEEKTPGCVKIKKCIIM

With `CCCN(C)C(=O)[C@@H]1CC(=O)N(C)[C@@H](CC(F)F)C(=O)N[C@@H]([C@@H](C)CC)C(=O)N(C)CC(=O)N(C)[C@H]2C/C=C\CCN(C2=O)[C@@H](Cc2ccc(C(F)(F)F)cc2)C(=O)N(C)CC(=O)N[C@@H](CCc2cc(F)c(C(F)(F)F)c(F)c2)C(=O)N2C[C@H](OCC)C[C@H]2C(=O)NC2(CC(C)(C)C2)C(=O)N(C)[C@@H](C2CCCC2)C(=O)N1C` [PP2030], the Kd in assay [1] amounted to 0.12 nM. Moreover, the “HRAS/KRAS (KD ratio)” value in assay [2] was “A (a compound having 10 or more and less than 20 is denoted as A)”. In assay [3], the IC50 came to 4.5 nM. Further, the “NRAS/KRAS (KD ratio)” value in assay [4] was “A (a compound having 10 or more and less than 20 is denoted as A)”.

For the molecule `CCCN1C(=O)C[C@@H](C(=O)N(C)C)N(C)C(=O)[C@H](C2CCCC2)N(C)C(=O)C2(CCC2)NC(=O)[C@@H]2C[C@@H](OCC)CN2C(=O)[C@H](CCc2cc(F)c(C(F)(F)F)c(F)c2)NC(=O)CN(C)C(=O)[C@H](Cc2ccc(C(F)(F)F)cc2)N2CC/C=C\C[C@@H](C2=O)N(C)C(=O)CNC(=O)[C@H]([C@@H](C)CC)NC(=O)[C@@H]1CC(C)C` [PP1826], the Kd in assay [1] amounted to 0.32 nM. In assay [2], the “HRAS/KRAS (KD ratio)” value is “A (a compound having 10 or more and less than 20 is denoted as A)”. Further, the IC50 in assay [3] worked out at 17.6 nM. Moreover, the “NRAS/KRAS (KD ratio)” value in assay [4] is “A (a compound having 10 or more and less than 20 is denoted as A)”.

Consider `CC[C@H](C)[C@@H]1NC(=O)[C@H](C2CC2)N(C)C(=O)C[C@@H](C(=O)N(C)C)N(C)C(=O)[C@H](C2CCCC2)N(C)C(=O)C2(CCCC2)N(C)C(=O)[C@@H]2CCCN2C(=O)[C@H](CCc2cc(F)c(C(F)(F)F)c(F)c2)NC(=O)CN(C)C(=O)[C@H](Cc2ccc(C)cc2)N2CC/C=C\C[C@@H](C2=O)N(C)C(=O)CN(C)C1=O` [PP1809], for which the Kd in assay [1] was found to be 0.12 nM. Besides, the “HRAS/KRAS (KD ratio)” value in assay [2] is “B (a compound having 3 or more and less than 10 is denoted as B)”. Further, the IC50 in assay [3] was determined as 22.4 nM. Further, the “NRAS/KRAS (KD ratio)” value in assay [4] was “A (a compound having 10 or more and less than 20 is denoted as A)”.

In the case of `CCOC[C@H]1C(=O)N[C@@H]([C@@H](C)CC)C(=O)N(C)CC(=O)N(C)[C@H]2C/C=C\CCN(C2=O)[C@@H](Cc2ccc(C(F)(F)F)cc2)C(=O)N(C)CC(=O)N[C@@H](CCc2ccc(C(F)(F)F)c(OC)c2)C(=O)N2C[C@@H](C)C[C@H]2C(=O)NC2(CCC2)C(=O)N(C)[C@@H](C2CCCC2)C(=O)N(C)[C@H](C(=O)N(C)CC)CC(=O)N1C` [PP2026], in assay [1], the dissociation constant Kd worked out at 0.089 nM. The “HRAS/KRAS (KD ratio)” value in assay [2] is “A (a compound having 10 or more and less than 20 is denoted as A)”. Moreover, the IC50 in assay [3] was 22.6 nM. Also, the “NRAS/KRAS (KD ratio)” value in assay [4] is “A (a compound having 10 or more and less than 20 is denoted as A)”.

For the molecule `CCO[C@@H]1C[C@H]2C(=O)NC3(CCCC3)C(=O)N(C)[C@@H](C3CCCC3)C(=O)N(C)[C@H](C(=O)N(C)C)CC(=O)N(C)[C@@H](CC)C(=O)N[C@@H]([C@@H](C)CC)C(=O)N(C)CC(=O)N(C)[C@H]3C/C=C\CCN(C3=O)[C@@H](Cc3ccc(C(F)(F)F)cc3)C(=O)N(C)CC(=O)N[C@@H](CCc3cc(C)c(Cl)c(C)c3)C(=O)N2C1` [PP1823], the dissociation constant Kd in assay [1] was found to be 1 nM. In assay [2], the “HRAS/KRAS (KD ratio)” value was “A (a compound having 10 or more and less than 20 is denoted as A)”. The IC50 in assay [3] came to 55.9 nM. In addition, the “NRAS/KRAS (KD ratio)” value in assay [4] is “A (a compound having 10 or more and less than 20 is denoted as A)”.

In the case of `CCC[C@H]1C(=O)N[C@@H]([C@@H](C)CC)C(=O)N(C)CC(=O)N(C)[C@H]2C/C=C\CCN(C2=O)[C@@H](Cc2ccc(C(F)(F)F)cc2)C(=O)N(C)CC(=O)N[C@@H](CCc2ccc(C(F)(F)F)c(Cl)c2)C(=O)N2C[C@H](OCC)C[C@H]2C(=O)NC2(CC(C)(C)C2)C(=O)N(C)[C@@H](C2CCCC2)C(=O)N(C)[C@H](C(=O)N(C)C)CC(=O)N1C` [PP1748], the Kd in assay [1] was 0.062 nM. Also, in assay [2], the “HRAS/KRAS (KD ratio)” value was “B (a compound having 3 or more and less than 10 is denoted as B)”. The IC50 in assay [3] came out at 3.1 nM. Moreover, the “NRAS/KRAS (KD ratio)” value in assay [4] is “A (a compound having 10 or more and less than 20 is denoted as A)”.

For `CCCN1C(=O)CN(CC)C(=O)CNC(=O)[C@H]([C@@H](C)CC)NC(=O)[C@H](CC(C)C)N(C)C(=O)C[C@@H](C(=O)N2CCOCC2)N(C)C(=O)[C@H](C2CCCC2)N(C)C(=O)C2(CCCC2)NC(=O)[C@@H]2CCCN2C(=O)[C@H](CCc2ccc(C(F)(F)F)c(Cl)c2)NC(=O)CN(C)C(=O)[C@@H]1Cc1ccc(C(F)(F)F)cc1` [PP1968] ([NMeL]IG[NEtG][NPrPhe(4-CF3)][Sar][hPhe(3-Cl-4-CF3)]P[Ac5c][NMeGly(cPent)][NMeD]-Morpholide; lactam N-11), the Kd in assay [1] was determined as 0.76 nM. Moreover, the “HRAS/KRAS (KD ratio)” value in assay [2] is “C (A compound having a KD ratio of 0.1 or more and less than 3 is denoted as C)”. For the same molecule, in assay [3], the IC50 is 13.5 nM. Further, the “NRAS/KRAS (KD ratio)” value in assay [4] is “C (A compound having a KD ratio of 0.1 or more and less than 3 is denoted as C)”.

For `CCO[C@@H]1C[C@H]2C(=O)NC3(CC(F)(F)C3)C(=O)N(C)[C@@H](C3CCCC3)C(=O)N(C)[C@H](CC)CC(=O)N(C)[C@@H](CC)C(=O)N[C@@H]([C@@H](C)CC)C(=O)N(C)CC(=O)N(C)[C@H]3C/C=C\CCN(C3=O)[C@@H](Cc3ccc(C(F)(F)F)cc3)C(=O)N(C)CC(=O)N[C@@H](CCc3cc(F)c(C(F)(F)F)c(F)c3)C(=O)N2C1` [PP1627], in assay [1], the Kd turned out to be 0.25 nM. The “HRAS/KRAS (KD ratio)” value in assay [2] was “A (a compound having 10 or more and less than 20 is denoted as A)”. Moreover, the IC50 in assay [3] amounted to 22.9 nM. Further, in assay [4], the “NRAS/KRAS (KD ratio)” value is “A (a compound having 10 or more and less than 20 is denoted as A)”.

Take `CCO[C@@H]1C[C@H]2C(=O)NC3(CC(C)(C)C3)C(=O)N(C)[C@@H](C3CCCC3)C(=O)N(C)[C@H](C(=O)N(C)C)CC(=O)N(C)[C@@H](CC)C(=O)N[C@@H]([C@@H](C)CC)C(=O)N(C)CC(=O)N(C)[C@H]3C/C=C\CCN(C3=O)[C@@H](Cc3ccc(C)cc3)C(=O)N(C)CC(=O)N[C@@H](CCc3ccc(C(F)(F)F)c(OC)c3)C(=O)N2C1` [PP1873]: in assay [1], the Kd was determined as 0.075 nM. Also, the “HRAS/KRAS (KD ratio)” value in assay [2] is “B (a compound having 3 or more and less than 10 is denoted as B)”. Also, the IC50 in assay [3] was found to be 8.5 nM. The “NRAS/KRAS (KD ratio)” value in assay [4] is “A (a compound having 10 or more and less than 20 is denoted as A)”.

For `CCCN(C)C(=O)[C@@H]1CC(=O)N(C)[C@@H](C(C)C)C(=O)N[C@@H]([C@@H](C)CC)C(=O)N(C)CC(=O)N(C)[C@H]2C/C=C\CCN(C2=O)[C@@H](Cc2ccc(C(F)(F)F)cc2)C(=O)N(C)CC(=O)N[C@@H](CCc2cc(F)c(C(F)(F)F)c(F)c2)C(=O)N2C[C@H](OCC)C[C@H]2C(=O)NC2(CCC2)C(=O)N(C)[C@@H](C2CCCC2)C(=O)N1C` [PP1992], the Kd in assay [1] amounted to 0.21 nM. For the same molecule, the “HRAS/KRAS (KD ratio)” value in assay [2] is “B (a compound having 3 or more and less than 10 is denoted as B)”. Besides, in assay [3], the IC50 came out at 17.7 nM. Besides, in assay [4], the “NRAS/KRAS (KD ratio)” value was “AA (a compound having 20 or more is denoted as AA)”.

With `CCC[C@H]1C(=O)N[C@@H]([C@@H](C)CC)C(=O)N(C)CC(=O)N(C)[C@H]2C/C=C\CCN(C2=O)[C@@H](Cc2ccc(C)cc2)C(=O)N(C)CC(=O)N[C@@H](CCc2ccc(C(F)(F)F)c(Cl)c2)C(=O)N2C[C@H](OCC)C[C@H]2C(=O)NC2(CC(C)(C)C2)C(=O)N(C)[C@@H](C2CCCC2)C(=O)N(C)[C@H](C(=O)N(C)C)CC(=O)N1C` [PP1896], the Kd in assay [1] worked out at 0.06 nM. In addition, in assay [2], the “HRAS/KRAS (KD ratio)” value is “B (a compound having 3 or more and less than 10 is denoted as B)”. Moreover, the IC50 in assay [3] turned out to be 5.3 nM. Further, the “NRAS/KRAS (KD ratio)” value in assay [4] was “A (a compound having 10 or more and less than 20 is denoted as A)”.
